Literature values, collected in US20090176744A1, “Deuterated fingolimod” (CoNCERT Pharmaceuticals, Inc., priority 2007, published 2009).

Legend:
[1] = general finding of cited clinical studies (Kahan 2003; Budde 2002; Ferguson 2003)
[2] = renal transplant patients; reversible upon cessation of treatment (Tedesco-Silva 2004)

For `CCCCCCCCc1ccc(CCC(N)(CO)CO)cc1.Cl` [fingolimod, 2-amino-2-[2-(4-octylphenyl)ethyl]-1,3-propanediol hydrochloride], the safety and tolerability [1] is listed as “safe and well-tolerated” and the heart rate [2] is listed as “mild and transient reduction in heart rate”.
